Assay results as given in US20150208649A1, “NOVEL COMPOSITIONS COMPRISING P-HYDROXYBENZYLAMINE” (DSM IP ASSETS B.V., priority 2012, published 2015).
≈ marks a conversion by molar mass, not a printed value.

How the values were obtained:
Assay in all cases: MIC, agar dilution method according to DIN 58 940
Assay type in all cases: cell-based
[1] = test system: Aspergillus brasiliensis (A. brasiliensis) ATCC 16404; details: for MIC: Aspergillus brasiliensis, ATCC16404, single compound; for MIC mix: 78 h; for ratio [MIC (single)/(MIC (mixture)]): >1 indicates a synergistic effect
Procedure: (§1) The antimicrobial activity was assessed by determination of the Minimum Inhibitory Concentration (MIC) using the agar dilution method according to DIN 58 940 at the Labor L+SAG, D-Bad Bocklet-Grossenbrach.
(§2) Culture plates with a diameter of 5.5 cm were prepared with fresh, kept liquid (50° C.) Mueller-Hinton Agar (double concentrated, Merck 1.05437)/aqua purificata comprising the compound/compound mixtures in the concentrations indicated in Table 1 according to standard methods. After solidifying and drying (about 1 h at 36° C.), the culture plates were inoculated with 1 μl of a suspension of the respective microorganism with the colony forming unit as outlined in table 1. The inoculated plates were then incubated at 36° C. The MIC's (i.e. the concentrations where still no growth could be observed) were determined after 18 h for E. coli, P. aeruginosa and S. aureus; after 48 h for P. acnes and after 78 h for A. brasiliensis and C. albicans. Per sample two culture plates were prepared. As control incubated and non-incubated cultures were used.
(§3) The suspensions of the microorganisms No. 1-4 were prepared by homogeneous suspension of 3-5 colonies of the same morphology in physiological NaCl-solution. The suspensions were adjusted such, that the haze corresponded to the Mac Farland standard 1.0 (about 3.0*10^8 KBE*/ml). For the preparation of the suspensions of the microorganisms 5 and 6, the microorganisms have been taken with a sterile swab and diluted in an amount of physiological NaCl solution such, that the haze corresponded to the Mac Farland standard 1.0. Afterwards the suspensions of the microorganisms 1 and 3-6 have been further diluted with physiological NaCl-solution in a ratio of 1:10. The colony count was determined using a spiral plater system (see table 2).

[2] = test system: Candida albicans (C. albicans) ATCC 10231; details: for MIC: Candida albicans, ATCC10231, single compound; for MIC mix: 78 h; for ratio [MIC (single)/(MIC (mixture)]): >1 indicates a synergistic effect
Procedure: as §1, §2, §3

[3] = test system: Escherichia coli (E. coli) ATCC 8739; details: for MIC: Escherichia coli, ATCC8739, single compound; for MIC mix: 18 h; for ratio [MIC (single)/(MIC (mixture)]): >1 indicates a synergistic effect
Procedure: as §1, §2, §3

[4] = test system: Propionibacterium acnes (P. acnes) ATCC 11828; details: for MIC: Cutibacterium acnes, ATCC11828, single compound; for MIC mix: 48 h; for ratio [MIC (single)/(MIC (mixture)]): >1 indicates a synergistic effect
Procedure: as §1, §2, §3

[5] = test system: Pseudomonas aeruginosa (P. aeruginosa) ATCC 9027; details: for MIC: Pseudomonas aeruginosa, ATCC9027, single compound; for MIC mix: 18 h; for ratio [MIC (single)/(MIC (mixture)]): >1 indicates a synergistic effect
Procedure: as §1, §2, §3

[6] = test system: Staphylococcus aureus (S. aureus) ATCC 6538; details: for MIC: Staphylococcus aureus, ATCC6538, single compound; for MIC mix: 18 h; for ratio [MIC (single)/(MIC (mixture)]): >1 indicates a synergistic effect
Procedure: as §1, §2, §3

[7] = concentration of the component in mixture pHBA/MI
[8] = concentration of the component in mixture pHBA/MP
[9] = concentration of the component in mixture pHBA/PE
[10] = single compound, 78 h at 36° C.
[11] = single compound, 18 h at 36° C.

Work on NCc1ccc(O)cc1 [pHBA, p-Hydroxybenzylamine] yielded an MIC ([1]; 78 h at 36° C.) of 5270 µg/mL (≈ 42.8 mM), an MIC mix [1, 7] of 0.98 mg/mL (≈ 7.96 mM) and an MIC mix [1, 8] of 1.05 mg/mL (≈ 8.53 mM). For the same molecule, the MIC mix [1, 9] was 2.34 mg/mL (≈ 19 mM), the “ratio [MIC (single)/(MIC (mixture)])” value ([1]; mixture pHBA/MI) was 5.38 and the “ratio [MIC (single)/(MIC (mixture)])” value ([1]; mixture pHBA/MP) was 5.02. For the same molecule, the “ratio [MIC (single)/(MIC (mixture)])” value ([1]; mixture pHBA/PE) was 2.25, the MIC ([2]; 78 h at 36° C.) was 5270 µg/mL (≈ 42.8 mM) and the MIC mix [2, 7] was 0.98 mg/mL (≈ 7.96 mM). For the same molecule, the MIC mix [2, 8] was 1.58 mg/mL (≈ 12.8 mM), the MIC mix [2, 9] was 2.34 mg/mL (≈ 19 mM) and the “ratio [MIC (single)/(MIC (mixture)])” value ([2]; mixture pHBA/MI) was 5.38. For the same molecule, the “ratio [MIC (single)/(MIC (mixture)])” value ([2]; mixture pHBA/MP) was 3.34, the “ratio [MIC (single)/(MIC (mixture)])” value ([2]; mixture pHBA/PE) was 2.25 and the MIC ([3]; 18 h at 36° C.) was 5270 µg/mL (≈ 42.8 mM). The MIC mix [3, 7] was 0.98 mg/mL (≈ 7.96 mM), the MIC mix [3, 8] was 1.58 mg/mL (≈ 12.8 mM) and the MIC mix [3, 9] was 3.51 mg/mL (≈ 28.5 mM). The “ratio [MIC (single)/(MIC (mixture)])” value ([3]; mixture pHBA/MI) was 5.38, the “ratio [MIC (single)/(MIC (mixture)])” value ([3]; mixture pHBA/MP) was 3.34 and the “ratio [MIC (single)/(MIC (mixture)])” value ([3]; mixture pHBA/PE) was 1.50. It also gave an MIC ([4]; 48 h at 36° C.) of 7900 µg/mL (≈ 64.1 mM), an MIC mix [4, 7] of 0.65 mg/mL (≈ 5.28 mM) and an MIC mix [4, 8] of 3.56 mg/mL (≈ 28.9 mM). The MIC mix [4, 9] was 5.27 mg/mL (≈ 42.8 mM), the “ratio [MIC (single)/(MIC (mixture)])” value ([4]; mixture pHBA/MI) was 12.15 and the “ratio [MIC (single)/(MIC (mixture)])” value ([4]; mixture pHBA/MP) was 2.22. For the same molecule, the “ratio [MIC (single)/(MIC (mixture)])” value ([4]; mixture pHBA/PE) was 1.50, the MIC ([5]; 18 h at 36° C.) was 5270 µg/mL (≈ 42.8 mM) and the MIC mix [5, 7] was 0.65 mg/mL (≈ 5.28 mM). The MIC mix [5, 8] was 2.40 mg/mL (≈ 19.5 mM), the MIC mix [5, 9] was 3.51 mg/mL (≈ 28.5 mM) and the “ratio [MIC (single)/(MIC (mixture)])” value ([5]; mixture pHBA/MI) was 8.11. For the same molecule, the “ratio [MIC (single)/(MIC (mixture)])” value ([5]; mixture pHBA/MP) was 2.20, the “ratio [MIC (single)/(MIC (mixture)])” value ([5]; mixture pHBA/PE) was 1.50 and the MIC ([6]; 18 h at 36° C.) was 5270 µg/mL (≈ 42.8 mM). The MIC mix [6, 7] was 2.20 mg/mL (≈ 17.9 mM), the MIC mix [6, 8] was 3.56 mg/mL (≈ 28.9 mM) and the MIC mix [6, 9] was 7.90 mg/mL (≈ 64.1 mM). For the same molecule, the “ratio [MIC (single)/(MIC (mixture)])” value ([6]; mixture pHBA/MI) was 2.4, the “ratio [MIC (single)/(MIC (mixture)])” value ([6]; mixture pHBA/MP) was 1.48 and the “ratio [MIC (single)/(MIC (mixture)])” value ([6]; mixture pHBA/PE) was 0.67.
With Cn1sccc1=O [MI, Methylisothiazolinone, reference compound] the MIC mix [1, 7] was 0.02 mg/mL (≈ 0.174 mM), the “ratio [MIC (single)/(MIC (mixture)])” value ([1]; mixture pHBA/MI) was 1.50 and the MIC single [1, 10] was 0.03 mg/mL (≈ 0.261 mM). For the same molecule, the MIC mix [2, 7] was 0.02 mg/mL (≈ 0.174 mM), the “ratio [MIC (single)/(MIC (mixture)])” value ([2]; mixture pHBA/MI) was 1.50 and the MIC single [2, 10] was 0.03 mg/mL (≈ 0.261 mM). For the same molecule, the MIC mix [3, 7] was 0.02 mg/mL (≈ 0.174 mM), the “ratio [MIC (single)/(MIC (mixture)])” value ([3]; mixture pHBA/MI) was 1.00 and the MIC single [3, 11] was 0.02 mg/mL (≈ 0.174 mM). The MIC single ([4]; single compound, 48 h at 36° C.) was 0.03 mg/mL (≈ 0.261 mM), the MIC mix [5, 7] was <0.01 mg/mL and the “ratio [MIC (single)/(MIC (mixture)])” value ([5]; mixture pHBA/MI) was >100. The MIC single [5, 11] was 0.04 mg/mL (≈ 0.347 mM), the MIC mix [6, 7] was 0.04 mg/mL (≈ 0.347 mM) and the “ratio [MIC (single)/(MIC (mixture)])” value ([6]; mixture pHBA/MI) was 1.75. For the same molecule, the MIC single [6, 11] was 0.07 mg/mL (≈ 0.608 mM).
COC(=O)c1ccc(O)cc1 [MP, Methylparabene, reference compound] was tested, and the MIC ([1]; 78 h at 36° C.) was 390 µg/mL (≈ 2.56 mM), the MIC mix [1, 8] was 0.26 mg/mL (≈ 1.71 mM) and the “ratio [MIC (single)/(MIC (mixture)])” value ([1]; mixture pHBA/MP) was 1.50. The MIC ([2]; 78 h at 36° C.) was 590 µg/mL (≈ 3.88 mM), the MIC mix [2, 8] was 0.39 mg/mL (≈ 2.56 mM) and the “ratio [MIC (single)/(MIC (mixture)])” value ([2]; mixture pHBA/MP) was 1.51. For the same molecule, the MIC ([3]; 18 h at 36° C.) was 890 µg/mL (≈ 5.85 mM), the MIC mix [3, 8] was 0.39 mg/mL (≈ 2.56 mM) and the “ratio [MIC (single)/(MIC (mixture)])” value ([3]; mixture pHBA/MP) was 2.28. For the same molecule, the MIC ([4]; 48 h at 36° C.) was 1330 µg/mL (≈ 8.74 mM), the MIC mix [4, 7] was <0.01 mg/mL and the MIC mix [4, 8] was 0.89 mg/mL (≈ 5.85 mM). The “ratio [MIC (single)/(MIC (mixture)])” value ([4]; mixture pHBA/MI) was >100, the “ratio [MIC (single)/(MIC (mixture)])” value ([4]; mixture pHBA/MP) was 1.49 and the MIC ([5]; 18 h at 36° C.) was 2000 µg/mL (≈ 13.1 mM). For the same molecule, the MIC mix [5, 8] was 0.59 mg/mL (≈ 3.88 mM), the “ratio [MIC (single)/(MIC (mixture)])” value ([5]; mixture pHBA/MP) was 3.39 and the MIC ([6]; 18 h at 36° C.) was 2000 µg/mL (≈ 13.1 mM). For the same molecule, the MIC mix [6, 8] was 0.89 mg/mL (≈ 5.85 mM) and the “ratio [MIC (single)/(MIC (mixture)])” value ([6]; mixture pHBA/MP) was 2.25.
